Experimental findings from ChEMBL document CHEMBL5728247, “Kinase inhibitors for the treatment of disease” (2021) are described below.

SMILES strings stand for the structures.

Chain of Tyrosine-protein kinase BTK (Q06187 whole entry): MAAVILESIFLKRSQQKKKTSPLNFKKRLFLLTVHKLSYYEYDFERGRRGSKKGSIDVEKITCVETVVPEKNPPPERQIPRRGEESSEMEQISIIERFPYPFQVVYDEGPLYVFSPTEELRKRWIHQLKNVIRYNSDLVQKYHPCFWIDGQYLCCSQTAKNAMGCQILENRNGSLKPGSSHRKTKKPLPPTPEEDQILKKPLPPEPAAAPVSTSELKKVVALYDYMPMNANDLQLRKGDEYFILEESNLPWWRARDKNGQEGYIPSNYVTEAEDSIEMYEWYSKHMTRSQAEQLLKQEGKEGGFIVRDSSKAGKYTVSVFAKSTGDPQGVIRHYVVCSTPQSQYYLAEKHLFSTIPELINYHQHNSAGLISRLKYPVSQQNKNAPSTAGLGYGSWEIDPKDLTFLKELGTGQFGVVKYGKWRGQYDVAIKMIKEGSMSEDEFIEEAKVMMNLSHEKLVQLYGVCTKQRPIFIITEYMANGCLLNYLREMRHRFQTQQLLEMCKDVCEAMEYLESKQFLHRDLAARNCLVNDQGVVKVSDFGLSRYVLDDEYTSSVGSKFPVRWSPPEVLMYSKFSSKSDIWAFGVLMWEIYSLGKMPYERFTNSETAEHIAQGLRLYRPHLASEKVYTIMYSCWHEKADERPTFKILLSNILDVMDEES

This assay addresses Tyrosine-protein kinase BTK (Homo sapiens, UniProt Q06187). Description: Kinase Assay: 1. Optimization of kinase concentration required to determine ATP Km,app. The assay was first performed at a high concentration of ATP (1 mM) against a dilution series of kinase in order to determine the amount of kinase required to elicit an approximately 80% change between the minimum and maximum TR-FRET emission ratios (the EC80 value).2. Determination of ATP Km,app. Using the concentration of enzyme determined in step 1, the assay was then performed against a dilution series of ATP in order to determine the amount of ATP required to elicit a 50% change between the minimum and maximum TR-FRET emission ratios (the EC50 value). This concentration of ATP was referred to as the “apparent” Km value for ATP, or the ATP Km,app.3. Optimization of kinase concentration required for assay at ATP Km,app. Using the ATP Km,app concentration of ATP determined in step 2, the kinase titration was repeated in order to determine the concentration of kinase required to elicit an approximately 80% change between the minimum and maximum TR-FRET emission ratios at the ATP Km,app concentration of ATP (the EC80 value). This was the concentration of kinase that will be used in an assay to determine an IC50 value for a compound of the invention. In general terms: In TR-FRET formats the signal depends on donor and acceptor labels being close together.
One may read the IC50 as the concentration that gives 50% inhibition. As to `C=CC(=O)Nc1cccc(N(C(=O)OCc2ccccc2)c2ccnc(Nc3cnn(CCN4CCOCC4)c3)n2)c1`, the half-maximal inhibitory concentration (IC50) came out at 5.74 nM.
Take `C=CC(=O)Nc1cccc(N(C(=O)OCc2ccccc2)c2ccnc(Nc3cnn(C)c3)n2)c1`: the IC50 amounted to 5.13 nM.
As for `C=CC(=O)Nc1cccc(N(C(=O)OCc2ccccc2)c2ccnc(Nc3cnn(C4CCOCC4)c3)n2)c1`, the IC50 stood at 3.12 nM.
